Results from patent US12421232B2, “Kinase inhibitor compounds and compositions and methods of use” (ICAHN SCHOOL OF MEDICINE AT MOUNT SINAI, priority 2018, dated 2025).
Like-named read-outs stand apart in the source and are kept apart here.

Key:
Assay in all cases: KINOMEscan Assay (DiscoverX)
Format in all cases: binding
Details in all cases: read-out: % DMSO Ctrl
CSNK1A1 = molecular target: T1, CSNK1A1 (Homo sapiens, UniProt P48729)
T1 construct: purchased DiscoverX

CSNK1G2 = molecular target: T2, CSNK1G2 (Homo sapiens, UniProt P78368)
T2 construct: purchased DiscoverX

CSNK2A1 = molecular target: T3, CSNK2A1 (Homo sapiens, UniProt P68400)
T3 construct: purchased DiscoverX

HASPIN = molecular target: T4, HASPIN (Homo sapiens, UniProt Q8TF76)
T4 construct: purchased DiscoverX
T4 sequence (Q8TF76 1-798): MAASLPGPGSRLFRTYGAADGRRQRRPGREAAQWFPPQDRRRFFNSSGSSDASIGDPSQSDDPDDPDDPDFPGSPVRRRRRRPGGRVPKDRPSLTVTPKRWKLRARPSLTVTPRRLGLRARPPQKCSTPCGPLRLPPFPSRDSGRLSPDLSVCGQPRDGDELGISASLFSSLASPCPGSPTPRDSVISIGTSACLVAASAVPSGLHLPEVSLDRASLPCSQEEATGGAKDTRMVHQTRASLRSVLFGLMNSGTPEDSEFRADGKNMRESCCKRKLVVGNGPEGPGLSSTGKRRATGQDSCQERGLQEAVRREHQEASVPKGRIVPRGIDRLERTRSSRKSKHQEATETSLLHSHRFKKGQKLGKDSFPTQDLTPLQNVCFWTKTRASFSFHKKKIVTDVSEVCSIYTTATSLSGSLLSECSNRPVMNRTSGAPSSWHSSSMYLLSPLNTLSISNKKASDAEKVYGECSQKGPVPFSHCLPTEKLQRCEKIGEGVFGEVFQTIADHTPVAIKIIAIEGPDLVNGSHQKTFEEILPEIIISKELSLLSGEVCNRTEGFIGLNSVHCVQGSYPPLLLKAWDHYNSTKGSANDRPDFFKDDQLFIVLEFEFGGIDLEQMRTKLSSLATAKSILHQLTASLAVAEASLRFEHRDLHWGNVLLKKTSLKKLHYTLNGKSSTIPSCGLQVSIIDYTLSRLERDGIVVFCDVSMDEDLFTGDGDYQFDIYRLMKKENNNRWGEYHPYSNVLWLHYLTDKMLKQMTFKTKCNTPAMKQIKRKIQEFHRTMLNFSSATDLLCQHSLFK

HIPK2 = molecular target: T5, HIPK2 (Homo sapiens, UniProt Q9H2X6)
T5 construct: purchased DiscoverX

ROCK1 = molecular target: T6, ROCK1 (Homo sapiens, UniProt Q13464)
T6 construct: purchased DiscoverX

CAMK2B = molecular target: T7, CAMK2B (Homo sapiens, UniProt Q13554)
T7 construct: purchased DiscoverX

FLT3-autoinhibited = molecular target: T8, FLT3-autoinhibited (Homo sapiens, UniProt P36888)
T8 construct: purchased DiscoverX
T8 sequence (P36888 564-993 limits assumed): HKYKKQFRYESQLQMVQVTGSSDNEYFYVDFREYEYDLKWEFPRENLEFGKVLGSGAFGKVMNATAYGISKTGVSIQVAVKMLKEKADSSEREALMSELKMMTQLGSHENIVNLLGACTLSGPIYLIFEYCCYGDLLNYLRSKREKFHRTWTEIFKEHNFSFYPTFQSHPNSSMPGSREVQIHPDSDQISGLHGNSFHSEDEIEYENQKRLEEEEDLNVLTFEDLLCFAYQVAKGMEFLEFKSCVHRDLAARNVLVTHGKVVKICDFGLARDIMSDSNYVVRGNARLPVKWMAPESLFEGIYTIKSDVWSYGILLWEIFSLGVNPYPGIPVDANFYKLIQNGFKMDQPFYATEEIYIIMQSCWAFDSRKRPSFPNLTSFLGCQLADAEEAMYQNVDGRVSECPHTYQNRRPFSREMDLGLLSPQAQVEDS

PIK3CG = molecular target: T9, PIK3CG (Homo sapiens, UniProt P48736)
T9 construct: purchased DiscoverX

PIP5K2C = molecular target: T10, PIP5K2C (Homo sapiens, UniProt Q8TBX8)
T10 construct: purchased DiscoverX
T10 sequence (Q8TBX8 1-421): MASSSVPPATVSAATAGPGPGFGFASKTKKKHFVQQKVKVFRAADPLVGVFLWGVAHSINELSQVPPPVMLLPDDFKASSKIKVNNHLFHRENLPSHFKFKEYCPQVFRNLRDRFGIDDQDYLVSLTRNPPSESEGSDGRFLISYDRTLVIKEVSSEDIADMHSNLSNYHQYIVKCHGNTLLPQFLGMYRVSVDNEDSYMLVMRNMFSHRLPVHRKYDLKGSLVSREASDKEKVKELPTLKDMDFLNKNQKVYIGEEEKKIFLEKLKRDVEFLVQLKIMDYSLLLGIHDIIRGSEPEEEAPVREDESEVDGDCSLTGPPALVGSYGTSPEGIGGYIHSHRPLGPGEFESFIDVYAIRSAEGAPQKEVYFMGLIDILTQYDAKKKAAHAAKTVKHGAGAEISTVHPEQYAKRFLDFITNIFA

ROCK2 = molecular target: T11, ROCK2 (Homo sapiens, UniProt O75116)
T11 construct: purchased DiscoverX

T3 sequence (P68400 whole entry): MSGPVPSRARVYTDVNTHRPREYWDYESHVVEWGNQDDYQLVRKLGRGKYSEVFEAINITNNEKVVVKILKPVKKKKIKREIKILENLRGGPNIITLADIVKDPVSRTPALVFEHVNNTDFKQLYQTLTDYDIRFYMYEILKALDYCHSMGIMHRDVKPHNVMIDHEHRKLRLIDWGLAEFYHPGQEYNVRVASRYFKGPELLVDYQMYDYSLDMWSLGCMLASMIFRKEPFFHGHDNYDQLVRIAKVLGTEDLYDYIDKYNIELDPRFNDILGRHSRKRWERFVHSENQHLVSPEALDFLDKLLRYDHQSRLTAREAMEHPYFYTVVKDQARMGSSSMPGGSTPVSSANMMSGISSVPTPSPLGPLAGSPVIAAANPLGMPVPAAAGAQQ
T9 sequence (P48736 whole entry): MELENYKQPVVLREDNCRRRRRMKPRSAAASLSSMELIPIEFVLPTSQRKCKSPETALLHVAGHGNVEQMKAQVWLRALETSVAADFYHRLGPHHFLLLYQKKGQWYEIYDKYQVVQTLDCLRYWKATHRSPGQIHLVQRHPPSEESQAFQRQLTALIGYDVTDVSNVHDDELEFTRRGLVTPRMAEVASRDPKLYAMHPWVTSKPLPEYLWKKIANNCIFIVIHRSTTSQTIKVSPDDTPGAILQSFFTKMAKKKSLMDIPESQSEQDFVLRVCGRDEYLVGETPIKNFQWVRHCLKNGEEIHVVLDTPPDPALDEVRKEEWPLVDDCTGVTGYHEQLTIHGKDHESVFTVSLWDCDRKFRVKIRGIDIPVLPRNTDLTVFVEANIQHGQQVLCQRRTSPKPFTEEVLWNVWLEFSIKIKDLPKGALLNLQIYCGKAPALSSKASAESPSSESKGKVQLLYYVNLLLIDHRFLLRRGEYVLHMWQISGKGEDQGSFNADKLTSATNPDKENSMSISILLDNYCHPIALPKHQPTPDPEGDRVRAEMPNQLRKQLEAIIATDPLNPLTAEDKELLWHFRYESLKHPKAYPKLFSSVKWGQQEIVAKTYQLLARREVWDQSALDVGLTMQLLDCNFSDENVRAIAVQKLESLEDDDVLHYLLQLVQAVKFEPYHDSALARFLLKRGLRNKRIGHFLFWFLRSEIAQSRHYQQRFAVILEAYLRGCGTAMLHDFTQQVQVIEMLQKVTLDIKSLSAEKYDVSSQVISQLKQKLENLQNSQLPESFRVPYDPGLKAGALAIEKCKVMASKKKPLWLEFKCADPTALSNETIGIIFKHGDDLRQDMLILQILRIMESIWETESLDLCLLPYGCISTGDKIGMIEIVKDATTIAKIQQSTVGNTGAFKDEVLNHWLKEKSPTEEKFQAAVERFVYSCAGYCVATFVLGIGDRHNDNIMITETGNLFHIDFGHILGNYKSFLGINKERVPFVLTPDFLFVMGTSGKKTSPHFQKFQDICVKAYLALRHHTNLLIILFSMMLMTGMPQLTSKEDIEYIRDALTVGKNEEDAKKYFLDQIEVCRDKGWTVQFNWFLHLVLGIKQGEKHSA
T2 sequence (P78368 whole entry): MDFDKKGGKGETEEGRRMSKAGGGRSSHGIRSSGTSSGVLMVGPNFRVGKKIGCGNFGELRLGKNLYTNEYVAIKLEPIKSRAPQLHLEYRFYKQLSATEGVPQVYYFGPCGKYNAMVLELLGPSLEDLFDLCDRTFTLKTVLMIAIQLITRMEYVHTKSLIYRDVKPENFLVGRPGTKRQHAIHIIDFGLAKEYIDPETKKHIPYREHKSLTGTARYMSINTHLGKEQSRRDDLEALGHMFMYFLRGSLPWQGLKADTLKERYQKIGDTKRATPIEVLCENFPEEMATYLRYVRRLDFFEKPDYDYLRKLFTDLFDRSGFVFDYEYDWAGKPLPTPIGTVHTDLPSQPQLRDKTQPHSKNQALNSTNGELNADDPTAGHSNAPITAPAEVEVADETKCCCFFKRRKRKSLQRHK
T5 sequence (Q9H2X6 whole entry): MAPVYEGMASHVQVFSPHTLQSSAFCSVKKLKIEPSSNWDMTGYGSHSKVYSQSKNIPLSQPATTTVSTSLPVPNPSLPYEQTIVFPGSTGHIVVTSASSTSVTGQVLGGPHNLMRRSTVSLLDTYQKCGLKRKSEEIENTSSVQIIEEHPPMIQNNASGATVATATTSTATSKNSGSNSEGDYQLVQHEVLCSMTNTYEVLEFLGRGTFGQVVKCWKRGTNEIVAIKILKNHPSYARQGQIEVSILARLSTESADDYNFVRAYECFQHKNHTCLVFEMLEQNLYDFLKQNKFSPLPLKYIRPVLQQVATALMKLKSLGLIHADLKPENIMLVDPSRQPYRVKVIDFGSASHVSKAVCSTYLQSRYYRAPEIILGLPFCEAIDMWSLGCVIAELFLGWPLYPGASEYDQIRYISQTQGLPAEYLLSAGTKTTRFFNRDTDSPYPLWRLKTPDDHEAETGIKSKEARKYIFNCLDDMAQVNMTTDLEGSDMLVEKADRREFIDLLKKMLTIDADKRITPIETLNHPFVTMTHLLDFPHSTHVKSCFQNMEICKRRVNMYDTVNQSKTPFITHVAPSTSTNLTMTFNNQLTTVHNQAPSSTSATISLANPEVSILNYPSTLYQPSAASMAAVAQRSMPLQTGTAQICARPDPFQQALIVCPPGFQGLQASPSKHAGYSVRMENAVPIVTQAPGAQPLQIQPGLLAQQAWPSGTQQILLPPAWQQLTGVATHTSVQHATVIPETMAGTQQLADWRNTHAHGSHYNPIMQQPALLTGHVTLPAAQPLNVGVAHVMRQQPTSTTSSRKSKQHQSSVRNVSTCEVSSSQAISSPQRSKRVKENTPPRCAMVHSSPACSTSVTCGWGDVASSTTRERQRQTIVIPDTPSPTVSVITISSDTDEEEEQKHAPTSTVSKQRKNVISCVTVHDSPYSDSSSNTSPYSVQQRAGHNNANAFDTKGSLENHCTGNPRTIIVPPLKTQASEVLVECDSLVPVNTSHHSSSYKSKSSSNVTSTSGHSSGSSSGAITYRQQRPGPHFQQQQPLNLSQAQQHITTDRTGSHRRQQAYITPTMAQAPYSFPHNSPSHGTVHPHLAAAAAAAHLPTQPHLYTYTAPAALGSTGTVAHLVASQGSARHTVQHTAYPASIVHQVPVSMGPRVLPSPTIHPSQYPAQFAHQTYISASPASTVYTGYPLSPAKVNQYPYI
T6 sequence (Q13464 whole entry): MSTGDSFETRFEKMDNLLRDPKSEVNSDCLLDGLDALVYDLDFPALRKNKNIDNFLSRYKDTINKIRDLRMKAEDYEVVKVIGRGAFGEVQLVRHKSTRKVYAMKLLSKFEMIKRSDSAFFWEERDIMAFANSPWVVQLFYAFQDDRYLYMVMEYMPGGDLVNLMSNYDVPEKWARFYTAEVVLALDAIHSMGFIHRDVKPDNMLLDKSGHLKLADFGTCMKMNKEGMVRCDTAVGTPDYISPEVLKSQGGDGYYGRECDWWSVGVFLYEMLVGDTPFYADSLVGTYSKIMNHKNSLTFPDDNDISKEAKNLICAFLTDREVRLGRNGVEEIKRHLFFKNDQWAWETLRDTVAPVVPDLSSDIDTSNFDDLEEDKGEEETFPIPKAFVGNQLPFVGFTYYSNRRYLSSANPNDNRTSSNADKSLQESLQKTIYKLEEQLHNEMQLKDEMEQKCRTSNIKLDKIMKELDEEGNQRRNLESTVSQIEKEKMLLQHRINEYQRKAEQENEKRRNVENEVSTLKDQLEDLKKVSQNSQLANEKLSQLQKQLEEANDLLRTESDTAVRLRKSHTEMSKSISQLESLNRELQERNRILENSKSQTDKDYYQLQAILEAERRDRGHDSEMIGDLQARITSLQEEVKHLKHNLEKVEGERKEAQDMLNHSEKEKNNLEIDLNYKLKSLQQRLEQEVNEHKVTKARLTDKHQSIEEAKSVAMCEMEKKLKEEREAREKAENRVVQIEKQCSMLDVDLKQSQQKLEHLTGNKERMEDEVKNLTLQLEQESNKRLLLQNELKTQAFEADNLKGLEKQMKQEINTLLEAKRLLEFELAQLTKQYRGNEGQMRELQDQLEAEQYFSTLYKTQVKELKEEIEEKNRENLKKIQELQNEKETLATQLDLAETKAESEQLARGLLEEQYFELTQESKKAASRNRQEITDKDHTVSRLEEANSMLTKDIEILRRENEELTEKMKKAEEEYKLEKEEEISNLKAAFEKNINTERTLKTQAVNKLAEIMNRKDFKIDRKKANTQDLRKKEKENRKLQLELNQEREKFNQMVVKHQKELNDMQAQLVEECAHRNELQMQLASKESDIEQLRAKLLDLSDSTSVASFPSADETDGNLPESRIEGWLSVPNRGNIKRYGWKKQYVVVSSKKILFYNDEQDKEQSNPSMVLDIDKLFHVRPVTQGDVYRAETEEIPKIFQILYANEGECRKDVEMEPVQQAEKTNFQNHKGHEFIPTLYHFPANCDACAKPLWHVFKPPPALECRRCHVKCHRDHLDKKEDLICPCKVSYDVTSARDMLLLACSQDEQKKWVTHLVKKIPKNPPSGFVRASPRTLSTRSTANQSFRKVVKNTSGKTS
T1 sequence (P48729 whole entry): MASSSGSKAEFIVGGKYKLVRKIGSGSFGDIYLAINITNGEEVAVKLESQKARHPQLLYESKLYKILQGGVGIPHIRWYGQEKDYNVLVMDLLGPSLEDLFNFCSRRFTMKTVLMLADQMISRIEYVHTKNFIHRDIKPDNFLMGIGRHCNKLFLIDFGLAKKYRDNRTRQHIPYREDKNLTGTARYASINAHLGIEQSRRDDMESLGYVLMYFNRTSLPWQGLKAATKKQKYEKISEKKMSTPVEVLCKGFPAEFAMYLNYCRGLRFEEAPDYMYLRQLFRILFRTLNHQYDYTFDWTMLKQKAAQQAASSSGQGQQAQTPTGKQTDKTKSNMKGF

Compound	remaining binding at 10 µM (CSNK1A1) [%]	remaining binding at 10 µM (CSNK1G2) [%]	remaining binding at 10 µM (CSNK2A1) [%]	remaining binding at 10 µM (HASPIN) [%]	remaining binding at 10 µM (HIPK2) [%]	remaining binding at 10 µM (ROCK1) [%]	remaining binding at 10 µM (CAMK2B) [%]	remaining binding at 10 µM (FLT3-autoinhibited) [%]	remaining binding at 10 µM (PIK3CG) [%]	remaining binding at 10 µM (PIP5K2C) [%]	remaining binding at 10 µM (ROCK1; ROCK1, 10 μM) [%]	remaining binding at 10 µM (ROCK2) [%]	also measured
COc1ccc2c(c1)[nH]c1c(C)nccc12 [Harmine, reference compound]	5	19	11	2	8.6	26							
C#CCn1c2cc(OC)ccc2c2ccnc(C)c21 [Compound 20-23a, 3-(7-Methoxy-1-methyl-β-carbolin-9-yl)-propan-1-yne]				1.7			3	100	42	41	9.2	16	remaining binding at 10 µM (CSNK1A1; CSNK1A1, 10 μM): 13%; remaining binding at 10 µM (CSNK1G2; CSNK1G2, 10 μM): 56%; remaining binding at 10 µM (CSNK2A1; CSNK2A1, 10 μM): 46%; remaining binding at 10 µM (HIPK2; HIPK2, 10 μM): 71%
COc1ccc2c3ccnc(C)c3n(CCCc3noc(N)n3)c2c1 [Compound 20-13, 3-(3-(7-Methoxy-1-methyl-β-carbolin-9-yl)propyl)-5-amino-1,2,4-oxadiazole]	33	91	49	0.35	2.3	24	69	85	3.3	13		86	
COc1ccc2c(c1)[nH]c1c(C)nc(CO)cc12 [Compound 2-8, (1-Methyl-7-methoxy-9H-pyrido[3,4-b]indol-3-yl)methanol]											33		remaining binding at 10 µM (CAMK2B; CAMK2B, 10 μM): 42%; remaining binding at 10 µM (FLT3-autoinhibited; FLT3-autoinhibited, 10 μM): 100%; remaining binding at 10 µM (PIK3CG; PIK3CG, 10 μM): 67%; remaining binding at 10 µM (PIP5K2C; PIP5K2C, 10 μM): 5%; remaining binding at 10 µM (ROCK2; ROCK2, 10 μM): 88%
